Measurements from patent US11104881B2, “Method for highly efficient conversion of human stem cells to lineage-specific neurons” (THE JOHNS HOPKINS UNIVERSITY, priority 2013, dated 2021).
Entries after “also recorded” stand apart in the source; their conditions may differ.

Experiments:
Atoh1-induced neurons [1] = experiment: Current-clamp recording, negative current injection: hyperpolarization sag and rebound action potentials; type: cell-based, human; conditions: ML252 5 μM
Atoh1-induced neurons [2] = type: cell-based, human
[3] = tested on: Atoh1-induced DA neurons derived from human iPSCs; type: cell-based; conditions: 40 μM and 100 μM for 15 minutes
Method: Neuron culture medium was changed to neurobasal medium before treatment. 6-OHDA was freshly prepared in vehicle solution (ascorbic acid (0.15%) in H2O) and quickly added to the neuron culture. Control cells were treated with vehicle solution alone. After 15 min at 37° C., the medium was removed and neurons were gently washed twice with Neurobasal Medium. 200 μl neuron culture medium (Neurobasal Medium with B27 Supplement) was added to each well and further incubated for 24 h. Cytotoxicity induced by 6-OHDA was measured using LDH Cytotoxicity Detection Kit (Roche) following the manufacturer's protocol. The percentage cytotoxicity was calculated using the following equation: Cytotoxicity (%)=(Experiment Value−Low Control)/(High Control−Low Control)×100. (Low control: culture medium; High control: total cell lysate).
6-hydroxydopamine (6-OHDA) is a neurotoxin widely used to induce neurotoxicity both in vivo and in vitro to model DA neuron loss in PD pathogenesis. […] Here, we tested the response of Atoh1-induced DA neurons to 6-OHDA treatment. […] Thus, Atoh1-induced DA neurons derived from human iPSCs are sensitive to 6-OHDA treatment at a concentration that selectively damages primary DA neurons isolated from substantia nigra.

[4] = tested on: primary DA neurons from substantia nigra; conditions: 6-OHDA 40 μM; cited from earlier work
Atoh1-induced DA neurons = type: cell-based, human
Atoh1-iPSCs = experiment: Dox-inducible Atoh1 expression measured by qRT-PCR; type: cell-based, human; conditions: Dox treatment for 2 days
Method: Total RNA was extracted using the RNeasy Mini kit (Qiagen). Reverse transcription was performed using MuLV reverse transcriptase (Applied biosystems) and Oligo(dT) primers. qRT-PCR was performed using SYBR Green PCR Master Mix (Applied Biosystems) and IQ5 RT-PCR detection system (Bio-rad). Relative expression of each gene was normalized to the 18S rRNA. To further optimize the Atoh1-mediated differentiation strategy, we asked what is the minimum time of Atoh1 induction for successful neuronal conversion. Equal numbers of Atoh1-iPSCs received different durations of Dox treatment (1 to 5 days), after which cells were replated and allowed to mature in vitro for additional 30 days. […] In contrast, Dox treatment for 2 to 5 days successfully differentiated iPSCs into neurons expressing TUJ1 and MAP2 (FIG. 9). […] To compare the level of neurogenic signaling before and after silencing ectopic Atoh1 expression, we treated Atoh1-iPSCs with Dox for 2 days and then withdrew Dox for 3 days (FIGS. 2J and 2K).

For `CC[C@H](C(=O)Nc1ccccc1N1CCCC1)c1ccccc1` [ML252], the “effect on hyperpolarization sag and rebound action potentials” value (Atoh1-induced neurons [1]) was “dampened; also recorded: blocked”.

In the case of `Nc1ccncc1` [4-AP], the “effect on potassium current” value (Atoh1-induced neurons [2]; 4-AP 25 μM, together with TTX, voltage-clamp) is reported as “significantly attenuated”.

In the case of `NCCc1cc(O)c(O)cc1O` [6-OHDA, 6-hydroxydopamine], the “neuron death by LDH Cytotoxicity assay” value ([3]; LDH after 24 h) is listed as “neuron death was also confirmed”, the “morphological signs of neuron death (cell condensation, neurite fragmentation)” value ([3]; differentiation day 36, read 24 hours after treatment) is listed as “caused morphological signs of neuron death” and the “DA neuron loss in rat substantia nigra neuron cultures” value [4] is listed as “causes selective DA neuron loss without affecting GABA neurons”.

For `NC1=N[C@H](O)[C@H]2[C@H]3O[C@]4(O)O[C@@H]([C@@H](O)[C@@]2(N1)[C@@H]4O)[C@]3(O)CO` [TTX, tetrodotoxin], the “effect on sodium current” value (Atoh1-induced neurons [2]) was “significantly attenuated”, the “effect on train of evoked action potentials” value (Atoh1-induced DA neurons) was “suppressed; also recorded: completely blocked” and the “time to recovery of action potentials after TTX washout” value (Atoh1-induced DA neurons) was 17 min.

For `C[C@H]1c2cccc(O)c2C(=O)C2=C(O)[C@]3(O)C(=O)C(C(N)=O)=C(O)[C@@H](N(C)C)[C@@H]3[C@@H](O)[C@@H]21` [Dox, Doxycycline], the “Atoh1 up-regulation by qRT-PCR versus control” value (Atoh1-iPSCs) was 49 fold.
